In patent publication EP0792271B1, “FURAN DERIVATIVES FOR INHIBITING PNEUMOCYSTIS CARINII PNEUMONIA, GIARDIA LAMBLIA AND CRYPTOSPORIDIUM PARVUM” (priority 1994, dated 1996):
Read-outs that look alike come from different tables or passages of the source.

Assays:
poly A poly T = assay: DNA thermal melting (increase in Tm of poly A poly T); format: binding; settings: MES buffer pH 6.0, 0.1 M NaCl, ratio of 0.3 moles of compound to nucleic acid bases
Protocol: (§1) Thermal melting curves for DNA and its complexes with compounds from Examples 4, 6, and 7-9 are determined as previously described in F.A. Tanious, et al., J.Biomol. Structure & Dynamics 11:1063 (1994) and W.D. Wilson, et al., Biochemistry 32:4098 (1993), by following the adsorption change at 260 nm as a function of temperature. Tm values were determined from first derivative plots. Compounds are compared by the increase in Tm (ΔTm=Tm of complex - Tm of the free nucleic acid) they produce in MES buffer (0.01M 2-(N-morpholino) ethanesulfonic acid, 0.001 M EDTA, 0.1 M NaCl adjusted to pH 6.0) at saturating amounts of compound (a ratio of 0.3 moles of compound to nucleic acid bases) unless otherwise indicated.

[1] = tested on: oligomer d(GCGCAATTGCGC)2; assay: DNA thermal melting (increase in Tm of oligomer); format: binding; settings: increase in thermal melting of the oligomer d(GCGCAATTGCGC)2; MES buffer pH 6.0
Protocol: as §1

[2] = molecular target: topoisomerase II isolated from Giardia lamblia; assay: Topoisomerase II inhibition (Giardia lamblia enzyme); format: biochemical; settings: 50% inhibition of topoisomerase II isolated from Giardia lamblia; read-out: IC50 Topoisomerase Activity II G.l.
[3] = molecular target: T1, topoisomerase II isolated from Drosophila melanogaster (Drosophila melanogaster, UniProt P15348); assay: Topoisomerase II inhibition (Drosophila melanogaster enzyme); format: biochemical
T1 construct: topoisomerase II isolated from Drosophila melanogaster; from tissue
T1 sequence (P15348 1-1447): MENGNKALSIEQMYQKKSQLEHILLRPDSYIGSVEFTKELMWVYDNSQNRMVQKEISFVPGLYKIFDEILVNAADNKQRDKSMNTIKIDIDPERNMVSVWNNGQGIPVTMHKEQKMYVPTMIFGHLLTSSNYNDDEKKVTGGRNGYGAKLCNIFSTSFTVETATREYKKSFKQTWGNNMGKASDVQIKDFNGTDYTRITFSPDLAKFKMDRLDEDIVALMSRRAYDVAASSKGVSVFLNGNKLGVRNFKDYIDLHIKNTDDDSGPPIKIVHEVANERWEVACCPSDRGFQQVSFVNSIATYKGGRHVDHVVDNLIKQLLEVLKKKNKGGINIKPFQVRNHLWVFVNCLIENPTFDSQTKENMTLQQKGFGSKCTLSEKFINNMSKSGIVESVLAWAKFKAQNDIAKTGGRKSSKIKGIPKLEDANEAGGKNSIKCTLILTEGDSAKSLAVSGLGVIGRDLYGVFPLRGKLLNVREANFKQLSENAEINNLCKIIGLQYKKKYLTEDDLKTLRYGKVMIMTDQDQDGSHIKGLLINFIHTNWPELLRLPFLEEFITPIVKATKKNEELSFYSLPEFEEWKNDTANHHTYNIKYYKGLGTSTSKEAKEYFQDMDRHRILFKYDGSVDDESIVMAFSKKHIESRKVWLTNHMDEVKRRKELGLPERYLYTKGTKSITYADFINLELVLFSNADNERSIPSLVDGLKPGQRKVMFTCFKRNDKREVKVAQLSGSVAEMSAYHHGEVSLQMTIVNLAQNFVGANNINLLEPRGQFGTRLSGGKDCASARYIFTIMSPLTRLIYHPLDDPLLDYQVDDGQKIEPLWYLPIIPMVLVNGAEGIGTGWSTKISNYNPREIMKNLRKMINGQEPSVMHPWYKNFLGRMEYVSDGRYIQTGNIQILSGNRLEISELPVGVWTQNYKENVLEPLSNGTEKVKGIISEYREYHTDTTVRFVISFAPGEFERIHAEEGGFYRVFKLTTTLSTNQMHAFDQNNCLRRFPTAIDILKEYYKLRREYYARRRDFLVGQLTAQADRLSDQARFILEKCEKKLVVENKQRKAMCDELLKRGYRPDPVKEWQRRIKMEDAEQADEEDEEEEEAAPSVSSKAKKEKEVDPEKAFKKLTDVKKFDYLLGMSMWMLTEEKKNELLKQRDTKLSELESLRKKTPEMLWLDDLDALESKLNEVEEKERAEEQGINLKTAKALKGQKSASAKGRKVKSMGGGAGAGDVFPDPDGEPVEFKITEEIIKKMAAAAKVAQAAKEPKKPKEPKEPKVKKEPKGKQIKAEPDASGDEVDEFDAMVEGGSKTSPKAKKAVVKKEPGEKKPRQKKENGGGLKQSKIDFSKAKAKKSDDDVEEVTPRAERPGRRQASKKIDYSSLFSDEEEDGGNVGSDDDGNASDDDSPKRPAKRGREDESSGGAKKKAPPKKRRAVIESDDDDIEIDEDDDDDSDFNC

[4] = molecular target: topoisomerase I isolated from Pneumocystis carinii; assay: Topoisomerase I inhibition (Pneumocystis carinii enzyme); format: biochemical; settings: 50% inhibition of topoisomerase I isolated from Pneumocystis carinii
Giardia lamblia = assay: Inhibition of growth of Giardia lamblia in in vitro culture; format: cell-based
Pneumocystis carinii = assay: In vivo activity against Pneumocystis carinii (lung cyst counts and toxicity); settings: for Toxicity: toxicity scale, larger value = more severe, values greater than 2 indicate deaths of some animals
Cryptosporidium parvum = assay: Activity against Cryptosporidium parvum in suckling mice (oocyst counts); format: in vivo; settings: suckling ICR outbred Swiss mice; for Oocysts: mean oocyst count, control 36.71; for % Reduction: reduction of mean oocyst count versus control
[5] = Pneumocystis carinii, iv, read-out: cyst/g lung (% of control)
[6] = Giardia duodenalis; read-out: IC50 Giardia lamblia

| Compound | ΔTm DNA (poly A poly T) [°C] | ΔTm Oligomer [1] [°C] | IC50 [2] [nM] | IC50 [3] [nM] | IC50 [4] [nM] | Oocysts (Cryptosporidium parvum) | % Reduction (Cryptosporidium parvum) [%] | IC50 (Giardia lamblia; [6]) [nM] | further results |
| --- | --- | --- | --- | --- | --- | --- | --- | --- | --- |
| N=C(N)c1ccc(-c2ccc(-c3ccc(C(=N)N)cc3)o2)cc1 [Compound 1, 2,5-bis(4-amidinophenyl)furan] | 25 | 11.7 | 500 to 1000 | 2000 | 100000 | 6.6 | 66 |  | IC50 (Giardia lamblia; Giardia duodenalis, read-out: IC50 Giardia lamblia): 200 nM; response vs control in vivo at 0.027 µM (Pneumocystis carinii; [5]): 55.9%; response vs control in vivo at 0.27 µM (Pneumocystis carinii; [5]): 4.8%; response vs control in vivo at 2.7 µM (Pneumocystis carinii; [5]): 8.3%; response vs control in vivo at 13.3 µM (Pneumocystis carinii; [5]): 2.1%; response vs control in vivo at 66.3 µM (Pneumocystis carinii; Pneumocystis carinii, po, read-out: cyst/g lung (% of control)): 28.4%; Toxicity (Pneumocystis carinii; dosage 0.027 µM/kg/day intravenous): 0; Toxicity (Pneumocystis carinii; dosage 0.27 µM/kg/day intravenous): 0; Toxicity (Pneumocystis carinii; dosage 2.7 µM/kg/day intravenous): 0; Toxicity (Pneumocystis carinii; dosage 13.3 µM/kg/day intravenous): 0; Toxicity (Pneumocystis carinii; dosage 66.3 µM/kg/day, oral dosage by gavage): 0 |
| c1cc(-c2ccc(-c3ccc(C4=NCCCN4)cc3)o2)ccc1C1=NCCCN1 [Compound 3, 2,5-di-p[2(3,4,5,6-tetrahydropyrimidyl)phenyl]furan] | > 28 | 13.5 | 500 to 1000 | 2500 | > 100000 |  |  | 60 | response vs control in vivo at 10.9 µM (Pneumocystis carinii; [5]): 0.4%; Toxicity (Pneumocystis carinii; dosage 10.9 µM/kg/day intravenous): +2 |
| CC(C)NC(=N)c1ccc(-c2ccc(-c3ccc(C(=N)NC(C)C)cc3)o2)cc1 [Compound 13, 2,5-bis[4-(N-isopropylamidino)phenyl]furan] | 23.1 |  | 500 to 1000 | 15000 to 30000 |  | 2.13 | 94.2 | 140 | Toxicity (Pneumocystis carinii; dosage 10.8 µM/kg/day intravenous): 0 |
